Source: patent US20220402917A1, “COMPOUND AS SMALL MOLECULE INHIBITOR PD-1/PD-L1 AND APPLICATION THEREOF” (MEDSHINE DISCOVERY INC., priority 2019, published 2022)

Tests used:
[1] = target: T1, PD-L1 in MDA-MR-231 cells (Homo sapiens, UniProt Q9NZQ7); test: Effect on expression level of PD-L1 in MDA-MR-231 cells (FACS); format: cell-based; conditions: 24 hours incubation, FACS detection of cell surface PD-L1
T1 construct: endogenous in cells; host or cells: MDA-MB-231
Protocol: Experimental Example 2: Using MDA-MR-231 Cells to Detect the Effect of Compounds on the Expression Level of PD-L1
The use of a triple-negative breast cancer cell line (MDA-MB-231) is an indirect method to assess PD-L1 endocytosis. PD-L1 molecules on the cell surface can be degraded by lysosomal and proteasome pathways, and small molecule inhibitors are added to induce PD-L1 endocytosis. After co-incubating small molecules with MDA-MB-231 cells for 24 hours, flow cytometry (Fluorescence-activated Cell Sorting, FACS) is used to detect the content of PD-L1 on the cell surface, which can indirectly reflect the effect of small molecule-induced PD-L1 endocytosis. Flow cytometry (FACS) is used to detect the effect of the compounds of the present disclosure on the expression level of PD-L1 in MDA-MR-231 cells.
Phosphate buffer (DPBS), 1640 medium, penicillin-streptomycin, fetal bovine serum, non-essential amino acids, 2-hydroxy-1-ethanethiol (2-ME), human interferon γ, LIVE/DEAD staining solution, staining buffer, fixation buffer, 0.25% trypsin, EDTA, anti-human PD-L1, anti-human PD-L1 isotype.
1640 complete medium preparation: 50 mL of fetal bovine serum, 5 mL of non-essential amino acids, 5 mL of penicillin-streptomycin and 0.5 mL of 2-hydroxy-1-ethanethiol were added to 439.5 mL of 1640 medium, and evenly mixed.
10 mM EDTA preparation: 1 mL of 0.5M EDTA was added to 49 mL of DPBS, and evenly mixed.
1) MDA-MB-231 cell counting and plating: The culture flask was taken out, the medium was removed and the culture flask was rinsed once with DPBS. After the culture flask was rinsed, 3 mL of 0.25% trypsin was added to the culture flask and the culture flask was placed in a 37° C. incubator for 1.5 min. The culture flask was taken out, 9 mL of 1640 complete medium was added to stop the reaction, the cells was transferred to a 50 mL centrifuge tube, and centrifuged at 1000 rpm for 5 min at 37° C. An appropriate volume of medium was added to re-suspend the cells according to the number of cells, and the number of cells was counted with a cell counter. The cell concentration was adjusted to 5×10^5 cells/mL with medium. Planking: A volume of 200 μL of cell suspension was added to each well of a 96-well plate, ensure that the number of cells in each well was 1×10^5. The cells were incubated overnight in an incubator. 2) Drug incubation: 100-fold dilution of compounds were prepared, and the drug was subjected to a 5-fold gradient dilution. 2 μL of each 100-fold dilution of compounds were added to each well. The cells were incubated in an incubator at 37° C. for 24 hours. 3) PD-L1 cell staining and FACS detection: the culture plate was taken out and the supernatant medium was discarded. The cells were washed once with 200 μL 1×PBS. 100 μL of EDTA (final concentration of 10 mM) was added to the cell suspension, and the cell suspension was treated at 37° C. for 10 min. Then after the cell suspension was centrifuged at 1500 rpm for 5 min, the cell suspension was washed once with 200 μL of staining solution. Staining: anti-human PD-L1 (2 μL per well) and LIVE/DEAD staining solution (1:1000) were diluted in staining solution, 50 μL of the staining solution was added to each well, and the staining was conducted at 4° C. for 30 min. Then the solution was washed twice with 200 μL of staining solution. Fixation: 100 μL of fixing solution was added to each well, the fixation was conducted at 4° C. for 15 min. The solution was then washed twice with 200 μL of staining solution, and 150 μL of solution was added to re-suspend the cells, followed by FACS detection.
Table 2 provides the effects of the compounds of the examples of the present disclosure on the expression level of PD-L1 in MDA-MR-231 cells.

PD1/PD-L1 = PD1/PD-L1 (Homo sapiens, UniProt Q9NZQ7); test: NFAT activity test (TCR Activitor/PD-L1 CHO cells with PD-1/NFAT Reporter-Jurkat cells); format: cell-based; design: host or cells: TCR Activitor/PD-L1 CHO cells; PD-1/NFAT Reporter-Jurkat cells; conditions: TCR Activitor/PD-L1 CHO cells + PD-1/NFAT Reporter-Jurkat cells, 5 hours, luciferase; for IC50: read-out: IC50, inhibitory activity on PD1/PD-L1 binding (NFAT activity test)
Excerpt: Experimental Example 3: NFAT Activity Test
The engineered T cell expresses PD-1 molecules and T cell receptor (TCR) on the surface, which can activate the NFAT signaling pathway of T cells after co-culturing with engineered antigen presenting cells (APCs). Expression of PD-L1 molecules on APCs can effectively attenuate the NFAT signaling pathway in T cells. PD-L1 inhibitors can be used effectively block the PD-1/PD-L1 regulatory mechanism, thereby reversing the weakened NFAT signaling pathway. After being pretreated with APC, the small molecule is co-cultured with T cells, then the expression of luciferase was detected to indirectly reflect the activation of the NFAT pathway in T cells.
The PD1/PD-L1 NFAT detection kit was purchased from BPS Biosciences. Birght-Glo reagent was purchased from Promega. Nivo multi-label analyzer (PerkinElmer).
The TCR Activitor/PD-L1 CHO cells with a growth confluence of 80% were plated into the plate at 35,000 cells per well and placed in a 37° C. cell culture incubator overnight; the compounds to be tested were diluted 5-fold to the 8th concentration, from 20 μM to 0.25 nM, and the DMSO concentration was 2%, a double-well experiment was set up. The TCR Activitor/PD-L1 CHO cell supernatant was discarded, 50 μl of compound working solution was added to each well, incubated at 37° C. for 30 minutes; after the incubation was completed, 50 μL of PD-1/NFAT Reporter-Jurkat cell suspension with a concentration of 4*10^5 cells/mL was added to each well, incubated at 37° C. for 5 hours. After the incubation was completed, 100 μL Bright-Glo was added to each well, and after mixing, the chemiluminescence signal was detected by a Nivo multi-label analyzer.
Using the equation (sample−Min)/(Max−Min)×100% to convert the raw data into inhibition rate, and the IC50 value can be obtained by curve fitting with four parameters (obtained from log(inhibitor) vs. response—Variable slope mode in GraphPad Prism). Table 3 provides the inhibitory activity of the compounds of the examples of the present disclosure on PD1/PD-L1 binding.

Chain of PD1/PD-L1 (Q9NZQ7 19-290): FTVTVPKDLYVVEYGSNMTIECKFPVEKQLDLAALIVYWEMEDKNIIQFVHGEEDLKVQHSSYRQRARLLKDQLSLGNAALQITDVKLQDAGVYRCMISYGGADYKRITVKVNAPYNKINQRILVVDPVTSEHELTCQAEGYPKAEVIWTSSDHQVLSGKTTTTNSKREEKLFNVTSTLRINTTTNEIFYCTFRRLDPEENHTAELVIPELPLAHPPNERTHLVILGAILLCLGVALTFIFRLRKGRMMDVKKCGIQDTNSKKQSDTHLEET
T1 sequence (Q9NZQ7 19-290): as above

| IC50 [1] | Maximum effect (induction fold) (PD1/PD-L1) | IC50 (PD1/PD-L1) | Compound |
| --- | --- | --- | --- |
| 32.7 nM | 3.68 induction fold | 16.2 nM | Cc1cc(C(=O)Nc2cccc(-c3cccc(NC(=O)c4ccc(CNCCO)cn4)c3Cl)c2Cl)nc2c1CCN(CCO)C2 [Compound 5] |
| 41.1 nM | 3.77 induction fold | 32.6 nM | Cc1cc(C(=O)Nc2cccc(-c3cccc(NC(=O)c4ccc(CNCCO)cn4)c3C)c2Cl)nc2c1CCN(CCO)C2 [Compound 9] |
| 96.9 nM | – | – | Cc1cc(C(=O)Nc2cccc(-c3cccc(NC(=O)c4ccc(CNCCO)cn4)c3C)c2Cl)nc2c1CCN(C1CCNCC1)C2 [Compound 14] |
| 79.7 nM | 3.79 induction fold | 58.8 nM | COc1nc(-c2cccc(-c3cccc(NC(=O)c4cc(C)c5c(n4)CN(CC(=O)O)CC5)c3Cl)c2C)cnc1CN1CC(O)C1 [Compound 22] |
| 9.97 nM | 3.39 induction fold | 29.2 nM | COc1nc(-c2cccc(-c3cccc(NC(=O)c4cc(C)c5c(n4)CN(CCO)CC5)c3Cl)c2Cl)cnc1CN1CC(C)(O)C1 [Compound 25] |
| 14.6 nM | 3.48 induction fold | 28.9 nM | COc1nc(-c2cccc(-c3cccc(NC(=O)c4cc(C)c5c(n4)CN(C(C)CO)CC5)c3Cl)c2Cl)cnc1CN1CC(O)C1 (stereo not drawn) [Compound 27] |
| – | 3.63 induction fold | 34.8 nM | COc1nc(-c2cccc(-c3cccc(NC(=O)c4cc(C)c5c(n4)CN(CC(C)(C)O)CC5)c3Cl)c2Cl)cnc1CN1CC(O)C1 [Compound 28] |
| – | 3.52 induction fold | 52 nM | COc1nc(-c2cccc(-c3cccc(NC(=O)c4cc(C)c5c(n4)CN(CC4(CO)CC4)CC5)c3Cl)c2Cl)cnc1CN1CC(O)C1 [Compound 29] |
| 10.5 nM | 4.80 induction fold | 26.6 nM | COc1nc(-c2cccc(-c3cccc(NC(=O)c4cc(C)c5c(n4)CN(CC(O)CO)CC5)c3Cl)c2Cl)cnc1CN1CC(O)C1 (stereo not drawn) [Compound 30] |
| 8.58 nM | 4.12 induction fold | 22.6 nM | COc1nc(-c2cccc(-c3cccc(NC(=O)c4cc(C)c5c(n4)CN(CCO)CC5)c3Cl)c2Cl)cnc1CNCCO [Compound 31] |
| 28.1 nM | – | – | COc1nc(-c2cccc(-c3cccc(NC(=O)c4cc(C)c5c(n4)CN(CCO)CC5)c3Cl)c2Cl)ccc1CN1CC(O)C1 [Compound 37] |
| – | 5.16 induction fold | 242 nM | COc1nc(-c2cccc(-c3cccc(NC(=O)c4cc(C)c5c(n4)CCN(CCO)C5)c3Cl)c2Cl)cnc1CN1CC(O)C1 [Compound 43] |
| – | 5.15 induction fold | 207 nM | COc1nc(-c2cccc(-c3cccc(NC(=O)c4cc(C)c5c(n4)CN(CC(C)O)CC5)c3Cl)c2Cl)cnc1CN1CC(O)C1 (stereo not drawn) [Compound 44] |
| – | 4.74 induction fold | 51.5 nM | COc1nc(-c2cccc(-c3cccc(NC(=O)c4cc(OCC#N)c5c(n4)CN(CCO)CC5)c3Cl)c2Cl)cnc1CN1CC(O)C1 [Compound 52] |
| – | 3.81 induction fold | 13.7 nM | COc1cc(C(=O)Nc2cccc(-c3cccc(-c4cnc(CN5CC6(CC(O)C6)C5)c(OC)n4)c3Cl)c2Cl)nc2c1CCN(CCO)C2 [Compound 53] |
| – | 3.91 induction fold | 38.5 nM | COc1cc(C(=O)Nc2cccc(-c3cccc(-c4cnc(CNCCO)c(OC)n4)c3Cl)c2Cl)nc2c1CCN(CCO)C2 [Compound 54] |
| – | 4.56 induction fold | 25.2 nM | COc1cc(C(=O)Nc2cccc(-c3cccc(-c4cnc(CN5CC(CO)C5)c(OC)n4)c3Cl)c2Cl)nc2c1CCN(CCO)C2 [Compound 55] |
| – | 2.75 induction fold | 10.1 nM | COc1cc(C(=O)Nc2cccc(-c3cccc(-c4cnc(CN5CCC(CO)C5)c(OC)n4)c3Cl)c2Cl)nc2c1CCN(CCO)C2 (stereo not drawn) [Compound 56] |
| – | 4.42 induction fold | 40.7 nM | COc1nc(-c2cccc(-c3cccc(NC(=O)c4cc(C#N)c5c(n4)CN(CCO)CC5)c3Cl)c2Cl)cnc1CN1CC2(CC(O)C2)C1 [Compound 57] |
| – | 5.01 induction fold | 104 nM | COc1nc(-c2cccc(-c3cccc(NC(=O)c4cc(C#N)c5c(n4)CN(CCO)CC5)c3Cl)c2Cl)cnc1CN1CC(C)(O)C1 [Compound 58] |
| – | 5.35 induction fold | 166 nM | COc1nc(-c2cccc(-c3cccc(NC(=O)c4cc(C#N)c5c(n4)CN(CCO)CC5)c3Cl)c2Cl)cnc1CNCCO [Compound 59] |
| – | 4.95 induction fold | 55.5 nM | COc1nc(-c2cccc(-c3cccc(NC(=O)c4cc(C#N)c5c(n4)CN(CCO)CC5)c3Cl)c2Cl)cnc1CN1CC(CO)C1 [Compound 60] |
| – | 4.99 induction fold | 53.8 nM | COc1nc(-c2cccc(-c3cccc(NC(=O)c4cc(C#N)c5c(n4)CN(CCO)CC5)c3Cl)c2Cl)cnc1CN1CCC(CO)C1 (stereo not drawn) [Compound 61] |
| – | 4.37 induction fold | 13.5 nM | COc1nc(-c2cccc(-c3cccc(NC(=O)c4cc(OC(F)F)c5c(n4)CN(CCO)CC5)c3Cl)c2Cl)cnc1CN1CC2(CC(O)C2)C1 [Compound 62] |
| – | 6.40 induction fold | 142 nM | COc1nc(-c2cccc(-c3cccc(NC(=O)c4cc(OC(F)F)c5c(n4)CN(CCO)CC5)c3Cl)c2Cl)cnc1CN1CC(C)(O)C1 [Compound 63] |
| – | 3.98 induction fold | 16.5 nM | COc1nc(-c2cccc(-c3cccc(NC(=O)c4cc(OC(F)F)c5c(n4)CN(CCO)CC5)c3Cl)c2Cl)cnc1CN1CCC(CO)C1 (stereo not drawn) [Compound 64] |
